The record followed here is article PMC11477289, “Low-Basicity 5-HT6 Receptor Ligands from the Group of Cyclic Arylguanidine Derivatives and Their Antiproliferative Activity Evaluation” (International Journal of Molecular Sciences, 2024).

In brackets after ≈: the same amount, converted by molar mass.

The target in data set [1] is T1, human 5-HT6 (Homo sapiens, UniProt P50406).
T1 construct: expressed in transfected cells
As to the kind of experiment: [3H]-LSD radioligand binding assay, 5-HT6R. The settings on record: HEK293 expressing human 5-HT6R, read-out: 5-HT6 Ki. The method, then:
Next, the ligands’ affinity for the 5-HT6 receptors was evaluated in the [^3H]-LSD radioligand binding assay. Experiments were performed in a stable HEK293 cell line expressing the human 5-HT6R.
The pellets were stored at −80 °C.

The target of data set [2] is T1, human 5-HT6. As to the kind of experiment: Functional evaluation, cAMP (LANCE Ultra) in HEK293 cells. The format is cell-based. The note with it: antagonist mode, cAMP induced by 5-CT 1000 nM.
Procedure: The supernatant was aspirated, and the cell pellet was resuspended in a stimulation buffer (1 × HBSS, 5 mM HEPES, 0.5 mM IBMX, 0.1% BSA).
The functional properties of compounds were evaluated using the LANCE Ultra cAMP detection kit (PerkinElmer). […] To investigate the antagonist activity, dopamine for D2R was added at a concentration of 10 nM, and for cell lines with 5-HT7R, 5-HT1AR, or 5-HT6R, 5-CT concentrations were adjusted, being, respectively, 10, 100, and 1000 nM, according to the receptor subtype.
For the quantification of cAMP levels, cells (5 µL) were incubated with a 5 µL mixture of necessary compounds for 30 min at room temperature in a 384-well white opaque microtiter plate (PerkinElmer). After incubation, the reaction was stopped, and cells were lysed by the addition of a 10 µL working solution (5 µL Eu-cAMP and 5 µL ULight-anti-cAMP). The assay plate was incubated for 1 h at room temperature. The time-resolved fluorescence resonance energy transfer (TR-FRET) signal was detected by an Infinite M1000 Pro (Tecan, Männedorf, Switzerland) using instrument settings from the LANCE Ultra cAMP detection kit manual.
The nature of data set [3]: Chromatographic hydrophobicity index on C18 column (lipophilicity). It counts as physicochemical.
Data set [4] can be described thus: Affinity to phospholipids, IAM column (CHI IAM). The format is physicochemical. The note with it: IAM.PC.DD2 column, pH 7.4.
Data set [5] can be described thus: Fish embryo toxicity (FET) test, OECD 236. The note with it: zebrafish (Danio rerio), in vivo, after 96 h of intoxication. The method, then:
To determine the toxicity of the compounds [66], the fish embryo toxicity (FET) test was performed on zebrafish (Danio rerio) according to OECD Test 236. The collected embryos were transferred to a Petri dish with an E3 medium, consisting of 5 mM NaCl; 0.33 mM MgCl2; 0.33 mM CaCl2; and 0.17 mM KCl, and placed in 6-well plates, 10 embryos per well. Stock solutions were prepared in DMSO. The range of different concentrations of the solutions was prepared by dissolving stock solutions in the E3 medium each time directly before addition to the wells. The solutions were changed once daily, and the embryos were maintained in the incubator at 28.5 °C. At the end of the exposure period (96 hpf—hours postfertilization), acute toxicity was determined based on a positive outcome in any of the four visual indicators of lethality, including the coagulation of fertilized eggs, lack of somite formation, lack of detachment of the tailbud from the yolk sac, and lack of heartbeat. The value of LD50 was calculated. Heartbeats were recorded to observe cardiotoxic effects. A dose–response curve was generated using Prism 8.0.1 (GraphPad Software).
Figure 3 (A) Toxicity of PR 68 and PR 73 in vivo in Danio reiro embryo toxicity test. […] Cardiotoxicity of (B) PR 68 and (C) PR 73 measured as heart rate (beats per minute) on 5 dpf Danio rerio larvae, E3—fish embryo growth medium. […]

The next data set concerns Danio rerio. The settings on record: in vivo. On the procedure:
Selected compounds were evaluated for their cardiotoxicity on the Danio rerio experimental model following the OECD 236 test. […] To explore specific toxic effects of tested compounds on the central nervous systems, locomotor activity in the Danio rerio experimental model was evaluated. Studying the reaction of zebrafish larvae to light and dark conditions can be a valuable method for assessing neurotoxicity in behavioral studies. […] This response is characterized by a rapid, coordinated movement, often involving a quick burst of swimming or a change in direction. In our experimental model, we changed light into dark conditions. […] This behavior helps them avoid potential predators and maintain optimal environmental conditions.
To determine the toxicity of the compounds [66], the fish embryo toxicity (FET) test was performed on zebrafish (Danio rerio) according to OECD Test 236. […] At the end of the exposure period (96 hpf—hours postfertilization), acute toxicity was determined based on a positive outcome in any of the four visual indicators of lethality, including the coagulation of fertilized eggs, lack of somite formation, lack of detachment of the tailbud from the yolk sac, and lack of heartbeat. The value of LD50 was calculated. Heartbeats were recorded to observe cardiotoxic effects. […]

For data set [6], the system named is MCF7 breast carcinoma cell line. As to the kind of experiment: Antiproliferative activity (MTS), MCF7. The note with it: Homo sapiens, MCF7, 72 h, read-out: IC50 Values MCF7.
For data set [7], the system named is 1321N1 astrocytoma cell line. As to the kind of experiment: Antiproliferative activity (MTS), 1321N1. The note with it: Homo sapiens, 1321-N1, 72 h, read-out: IC50 Values 1321N1.
Data set [8] concerns LN-229 glioblastoma cell line. As to the kind of experiment: Antiproliferative activity (MTS), LN-229. The settings on record: Homo sapiens, LN-229, 72 h, read-out: IC50 Values LN-229.
The test system of another data set is astrocyte cell line PG-4. As to the kind of experiment: Activity on normal astrocytes (MTS), PG-4. The settings on record: Felis catus, 72 h, read-out: IC50 Values PG-4.
The target of another data set is 5-HT7b receptor (Homo sapiens, UniProt P34969). As to the kind of experiment: [3H]-5-CT radioligand binding assay, 5-HT7.
5-HT7b receptor, sequence (P34969 1-432 limits assumed): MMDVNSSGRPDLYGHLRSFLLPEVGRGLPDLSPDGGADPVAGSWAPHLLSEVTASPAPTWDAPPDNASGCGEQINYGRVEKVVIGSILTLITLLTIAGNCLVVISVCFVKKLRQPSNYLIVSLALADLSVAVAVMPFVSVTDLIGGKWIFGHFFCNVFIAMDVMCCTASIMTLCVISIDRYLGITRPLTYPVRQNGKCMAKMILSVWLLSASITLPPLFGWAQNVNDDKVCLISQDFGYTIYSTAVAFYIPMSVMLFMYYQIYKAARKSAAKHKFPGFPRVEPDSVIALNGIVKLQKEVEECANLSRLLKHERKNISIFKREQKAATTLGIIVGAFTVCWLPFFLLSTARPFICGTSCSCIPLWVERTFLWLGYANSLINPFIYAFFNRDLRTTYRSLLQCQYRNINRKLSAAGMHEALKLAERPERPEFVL
A further data set has as its target T2, 5-HT1A receptor (Homo sapiens, UniProt P08908).
T2 sequence (P08908 1-422): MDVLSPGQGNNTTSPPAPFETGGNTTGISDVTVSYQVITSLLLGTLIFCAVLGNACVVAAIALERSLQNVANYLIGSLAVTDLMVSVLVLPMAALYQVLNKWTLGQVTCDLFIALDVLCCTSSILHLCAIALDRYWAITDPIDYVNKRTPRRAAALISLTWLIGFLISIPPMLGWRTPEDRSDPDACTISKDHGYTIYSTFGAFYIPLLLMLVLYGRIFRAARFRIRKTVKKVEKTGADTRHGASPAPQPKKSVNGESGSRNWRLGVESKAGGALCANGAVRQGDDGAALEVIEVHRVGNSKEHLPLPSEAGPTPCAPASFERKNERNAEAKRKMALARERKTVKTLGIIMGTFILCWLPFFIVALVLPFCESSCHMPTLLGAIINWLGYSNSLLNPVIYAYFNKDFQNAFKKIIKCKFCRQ
As to the kind of experiment: [3H]-8-OHDPAT radioligand binding assay, 5-HT1A.

T1 sequence (P50406 whole entry): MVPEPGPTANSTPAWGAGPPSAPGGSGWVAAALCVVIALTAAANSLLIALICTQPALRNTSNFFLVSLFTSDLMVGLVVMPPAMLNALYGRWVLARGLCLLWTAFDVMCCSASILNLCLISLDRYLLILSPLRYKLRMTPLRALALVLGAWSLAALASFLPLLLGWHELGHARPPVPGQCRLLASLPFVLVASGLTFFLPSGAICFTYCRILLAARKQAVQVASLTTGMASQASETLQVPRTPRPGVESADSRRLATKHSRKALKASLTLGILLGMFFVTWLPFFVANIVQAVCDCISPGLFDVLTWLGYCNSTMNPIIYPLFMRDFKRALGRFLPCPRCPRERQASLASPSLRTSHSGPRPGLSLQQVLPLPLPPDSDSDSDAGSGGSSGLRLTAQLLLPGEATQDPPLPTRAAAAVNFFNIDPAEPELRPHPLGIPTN

The Ki is a dissociation constant, usually derived from enzyme kinetics or from competition with a known ligand. The term Kb denotes the equilibrium dissociation constant of an antagonist, usually derived from a functional assay. Lower therefore signals a more potent antagonist. By LC50 is commonly meant the concentration that kills 50% of the test population. By IC50 is commonly meant the point on the concentration scale where inhibition reaches its midpoint. Regarding `CC1NC(NS(=O)(=O)c2cccc3ccccc23)=Nc2cccc(Cl)c21` (stereo not shown) [PR 68, N -(5-chloro-4-methyl-3,4-dihydroquinazolin-2-yl)naphthalene-1-sulfonamide], the values for the Ki at human 5-HT6 [1], on 5-HT7b receptor and on 5-HT1A receptor were 0.037 ± 0.008 µM, 19.3 µM and 35.1 µM, respectively. At human 5-HT6 [2], this compound came in with a Kb of 0.079 µM. The “CHI C18 pH 2.6” value in data set [3] was 101.4. In addition, the “CHI C18 pH 7.4” value in [3] was 99.2. Further, in data set [3], the “CHI C18 pH 10.5” value is recorded as 103.0. The “CHI IAM” value in data set [4] worked out at 45.8. In [5], this compound registered an LC50 at 96 h of 7.82 µg/mL (≈ 20.3 µM). The “cardiotoxicity (heart rate)” value with Danio rerio was “do not show cardiotoxic properties”. Also, the IC50 (in data set [6]; in data set [7]; in data set [8]; in the data set with astrocyte cell line PG-4) was greater than 25 µM in each case.
For `CC1NC(NS(=O)(=O)c2cccc3ccccc23)=Nc2cccc(F)c21` (stereo not shown) [PR 73, N -(5-fluoro-4-methyl-3,4-dihydroquinazolin-2-yl)naphthalene-1-sulfonamide], the Ki on human 5-HT6 [1] amounted to 0.043 ± 0.011 µM; on 5-HT7b receptor it was 35.8 µM; at 5-HT1A receptor, 80 µM. At human 5-HT6 [2], this compound gave a Kb of 0.134 µM. For the same compound, in data set [3], the “CHI C18 pH 2.6” value turned out to be 94.6. The “CHI C18 pH 7.4” value in data set [3] worked out at 94.9. For the same compound, the “CHI C18 pH 10.5” value in data set [3] turned out to be 96.5. In addition, the “CHI IAM” value in data set [4] stood at 42.3. In data set [5], the LC50 at 96 h came to 10.2 µg/mL (≈ 27.5 µM). In addition, the “cardiotoxicity (heart rate)” value with Danio rerio is reported as “do not show cardiotoxic properties”. In addition, the IC50 (in data set [6]; in [7]; in [8]; with astrocyte cell line PG-4) was greater than 25 µM each time.
